# Reference: patent US20210188856A1, “CRYSTAL FORM OF HYDROCHLORIDE OF PYRAZOLOHETEROARYL DERIVATIVE AND PREPARATION METHOD” (JIANGSU HENGRUI MEDICINE CO., LTD., priority 2018, published 2021)
# Entries after “also recorded” stand apart in the source; their conditions may differ. Where two headings read alike, the source gives them in different places.
# What was measured:
# Assay type in all cases: physicochemical
# [1] = Influencing factors stability (heating, light illumination, high humidity; spread and uncovered, 20 days)
# Procedure: Example 6: the crystal form I of the dihydrochloride salt of the compound represented by formula (I) (example 1) was spread and uncovered, and the steadily of the sample was evaluated under heating (40° C., 60° C.), light illumination (4500 Lux), and high humidity (RH 75%, RH 90%) with a period of 20 days.
# Example 10: the crystal form A (example 7) of the monohydrochloride salt of the compound of formula (I) was spread and uncovered, and the stability of the sample was evaluated under heating (40° C., 60° C.), light illumination (4500 Lux), high humidity (RH 75%, RH 90%) conditions with a period of 20 days.
# Example 11: the crystal form B of the monohydrochloride salt of the compound represented by formula (I) (example 8) was spread and uncovered, and the stability of the sample was evaluated under heating (40° C., 60° C.), light illumination (4500 Lux), high humidity (RH 75%, RH 90%) conditions with a period of 20 days.
# Example 12: the crystal form C of the monohydrochloride salt of the compound represented by formula (I) (example 9) was spread and uncovered, and the stability of the sample was evaluated under heating (40° C., 60° C.), light illumination (4500 Lux), high humidity (RH 75%, RH 90%) conditions with a period of 20 days.
# [2] = Long-term stability, 25° C., 60% RH, 9 months; conditions: for Purity % 3 months / Purity % 9 months / Purity Initial: 60% RH
# Procedure: Example 13: Three batches of the crystal form I of the dihydrochloride salt of the compound of formula (I) were subjected to a long-term stability investigation of 9 months under the conditions of 25° C±2° C., 60%RH±5%RH.
# [3] = Hygroscopicity by dynamic vapor sorption (DVS); conditions: 25° C.
# Procedure: DVS is dynamic vapor sorption: Surface Measurement Systems advantage 2 is used, the humidity starts from 50%, the humidity range is 0%-95%, and the step size is 10%. The judgment standard is that the mass change is less than 0.01% within 10000 min, and two cycles are performed. Surface Measurement Systems advantage 2 was used, the experiment was carried out at 25° C. with humidity starting from 50%, the humidity range observed was 0%-95%, the step size was 10%, and the judgment standard was that the mass change was less than 0.01% within 10000 min, and two cycles were performed.
# [4] = XRPD of sample taken out during DSC temperature rise
# Excerpt: According to X-ray powder diffraction detection, the crystal form is crystal form I, and the XRPD pattern thereof is shown in FIG. 1.
# [5] = Solubility in PBS 7.4 and FaSSIF solutions; conditions: thermodynamic from solid
# Excerpt: The amorphous samples of the compound represented by formula (I) and the crystal form I samples of the dihydrochloride salt of the compound represented by formula (I) obtained in the present disclosure were further evaluated for solubility in PBS 7.4 and FaSSIF solutions.
# Log D = assay: Log D
# [6] = light illumination (4500 Lux), 4 days
# [7] = light illumination (4500 Lux), 10 days
# [8] = light illumination (4500 Lux), 20 days
compound,measurement,setting,value
"CCCCOc1nc(N)c2cnn(Cc3ccc(CN4CCCC4)cc3)c2n1.Cl.Cl [crystal form I, 6-butoxy-1-(4-(pyrrolidin-1-ylmethyl)benzyl)-1H-pyrazolo[3,4-d]pyrimidin-4-amine dihydrochloride]",Maximum single impurity,[1]; 0 day,0.11%
same,Purity,[1]; 0 day,99.47%
same,Total impurities,[1]; 0 day,0.53%
same,Maximum single impurity,"[1]; 40° C., 4 days",0.11%
same,Purity,"[1]; 40° C., 4 days",99.49%
same,Total impurities,"[1]; 40° C., 4 days",0.51%
same,Maximum single impurity,"[1]; 40° C., 10 days",0.12%
same,Purity,"[1]; 40° C., 10 days",99.52%
same,Total impurities,"[1]; 40° C., 10 days",0.48%
same,Maximum single impurity,"[1]; 40° C., 20 days",0.12%
same,Purity,"[1]; 40° C., 20 days",99.46%
same,Total impurities,"[1]; 40° C., 20 days",0.54%
same,Maximum single impurity,"[1]; 60° C., 4 days",0.15%
same,Purity,"[1]; 60° C., 4 days",99.44%
same,Total impurities,"[1]; 60° C., 4 days",0.56%
same,Maximum single impurity,"[1]; 60° C., 10 days",0.11%
same,Purity,"[1]; 60° C., 10 days",99.53%
same,Total impurities,"[1]; 60° C., 10 days",0.47%
same,Maximum single impurity,"[1]; 60° C., 20 days",0.11%
same,Purity,"[1]; 60° C., 20 days",99.42%
same,Total impurities,"[1]; 60° C., 20 days",0.58%
same,Maximum single impurity,"[1]; 75% RH, 4 days",0.15%
same,Purity,"[1]; 75% RH, 4 days",99.38%
same,Total impurities,"[1]; 75% RH, 4 days",0.62%
same,Maximum single impurity,"[1]; 75% RH, 10 days",0.12%
same,Purity,"[1]; 75% RH, 10 days",99.53%
same,Total impurities,"[1]; 75% RH, 10 days",0.47%
same,Maximum single impurity,"[1]; 75% RH, 20 days",0.11%
same,Purity,"[1]; 75% RH, 20 days",99.47%
same,Total impurities,"[1]; 75% RH, 20 days",0.53%
same,Maximum single impurity,"[1]; 90% RH, 4 days",0.11%
same,Purity,"[1]; 90% RH, 4 days",99.46%
same,Total impurities,"[1]; 90% RH, 4 days",0.54%
same,Maximum single impurity,"[1]; 90% RH, 10 days",0.12%
same,Purity,"[1]; 90% RH, 10 days",99.54%
same,Total impurities,"[1]; 90% RH, 10 days",0.46%
same,Maximum single impurity,"[1]; 90% RH, 20 days",0.11%
same,Purity,"[1]; 90% RH, 20 days",99.52%
same,Total impurities,"[1]; 90% RH, 20 days",0.48%
same,Maximum single impurity,[1]; [6],0.14%
same,Purity,[1]; [6],99.45%
same,Total impurities,[1]; [6],0.55%
same,Maximum single impurity,[1]; [7],0.11%
same,Purity,[1]; [7],99.54%
same,Total impurities,[1]; [7],0.46%
same,Maximum single impurity,[1]; [8],0.12%
same,Purity,[1]; [8],99.41%
same,Total impurities,[1]; [8],0.59%
same,stability under the influencing factor conditions (in words),"[1]; light illumination, 40° C., 60° C., 75% RH, 90% RH, 20 days",good
same,"physical and chemical stability, long-term (in words)","[2]; 25° C., 60% RH for 9 months",good
same,Purity % 3 months,"[2]; Batch 1, 25° C., 3 months",99.52%
same,Purity % 3 months,"[2]; Batch 1, 25° C., 3 months as printed, column between 3 and 9 months",99.57%
same,Purity % 9 months,"[2]; Batch 1, 25° C.",99.50%
same,Purity Initial,"[2]; Batch 1, 25° C.",99.57%
same,Purity % 3 months,"[2]; Batch 2, 25° C., 3 months",99.50%
same,Purity % 3 months,"[2]; Batch 2, 25° C., 3 months as printed, column between 3 and 9 months",99.48%
same,Purity % 9 months,"[2]; Batch 2, 25° C.",99.48%
same,Purity Initial,"[2]; Batch 2, 25° C.",99.53%
same,Purity % 3 months,"[2]; Batch 3, 25° C., 3 months",99.38%
same,Purity % 3 months,"[2]; Batch 3, 25° C., 3 months as printed, column between 3 and 9 months",99.33%
same,Purity % 9 months,"[2]; Batch 3, 25° C.",99.40%
same,Purity Initial,"[2]; Batch 3, 25° C.",99.44%
same,DVS weight change 0.0% RH-95.0% RH,[3]; 0.0% RH-95.0% RH,9.19%
same,DVS weight change 10%RH-90.0%RH,[3]; 10%RH-90.0%RH,6.628%
same,Crystal form before and after DVS (XRPD),"[3]; DVS two cycles, dihydrochloride",did not change; also recorded: has not changed; also recorded: unchanged
same,hygroscopicity (in words),"[3]; DVS, dihydrochloride",slightly hygroscopic; also recorded: (with hygroscopicity)
same,crystal form before and after temperature rise (XRPD),[4]; raised to 150° C.,did not change
same,crystal form before and after temperature rise (XRPD),[4]; raised to 175° C.,did not change
same,solubility,"[5]; FaSSIF solution, fassif, read-out: FasSIF Solubility",1250 µg/mL
same,solubility,"[5]; PBS 7.4, pH 7.4, aqueous buffer, read-out: PBS 7.4 Solubility",50 µg/mL
same,logD,Log D,1.17
